Source: patent publication US9504676B2, “Molecules inhibiting a metabolic pathway involving the Syk protein tyrosine kinase and method for identifying said molecules” (CENTRE NATIONAL DE LA RECHERCHE SCIENTIFIQUE, priority 2008, dated 2016)

System: Lyn
Assay: FcεRI-dependent Lyn activation in RBL-2H3 cells
Assay type: cell-based, rat
Description: To examine the functional similarities with G4G11, the inventors explored the biological effects of C-13 on mast cell activation. […] Similarly to the intrabody G4G11, C-13 inhibited the phosphorylation and FcεRI-induced kinase activity of Btk (FIG. 2A) and the phosphorylation of PLC-γ1 and PLC-γ2, the two PLC-γ isoforms expressed in mast cells (FIGS. 2A, C). PTK Lyn phosphorylates both Syk and Btk giving rise to the complete activation thereof and the subsequent phosphorylation of PLC-γ^18.
• 1) Chemical products and antibodies. A chemical bank of 3000 molecules (a varied subset) was acquired from ChemBridge, Inc. (San Diego, Calif.). Stocks of solutions of small molecules were prepared at a rate of 10 mM in DMSO (dimethylsulphoxide), except for C-13 (methyl 2-{5-[(3-benzyl-4-oxo-2-thioxo-1,3-thiazolidin-5-ylidene)methyl]-2-furyl}benzoate, ChemBridge ID No. 6197026) prepared in DMF (dimethylformamide). […] The binding of G4G11 with Syk was assessed by adding the 9E10 monoclonal antibody conjugated with HRP detecting the amino acid sequence EQKLISEEDLN of human c-myc protein located at the C-terminal end of the scFv fragment. To generate Syk mutants, targeted mutagenesis was used on GST:Syk 6-242 protein and the binding of G4G11 with the mutants was assessed in the presence of 5 μM of C-13. • 3) Cells, culture conditions and functional tests. […]

## COC(=O)c1ccccc1-c1ccc(/C=C2/SC(=S)N(Cc3ccccc3)C2=O)o1 [Molecule C-13, methyl 2-{5-[(3-benzyl-4-oxo-2-thioxo-1,3-thiazolidin-5-ylidene)methyl]-2-furyl}benzoate]
  FcεRI-dependent Lyn activation: did not affect
